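How tested: cells in 96-well plates exposed to compound for 48 hours at five concentrations. TGI is the concentration that stops growth completely.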
Key:
Assay in all cases: NCI-60 cell line screen, 48 h
[1] = tested on: UACC-62 melanoma
[2] = tested on: BT-549 breast
[3] = tested on: PC-3 prostate
[4] = tested on: SNB-75 CNS
[5] = tested on: KM12 colon
[6] = tested on: SF-295 CNS
[7] = tested on: NCI-H460 lung
[8] = tested on: UACC-257 melanoma
[9] = tested on: MDA-MB-231 breast
[10] = tested on: OVCAR-8 ovarian
[11] = tested on: MDA-N
[12] = tested on: CAKI-1 renal
[13] = tested on: MALME-3M melanoma
[14] = tested on: HT29 colon
[15] = tested on: LOX IMVI melanoma
[16] = tested on: NCI/ADR-RES ovarian
[17] = tested on: K-562 leukemia
[18] = tested on: A498 renal
[19] = tested on: SK-MEL-28 melanoma
[20] = tested on: ACHN renal
[21] = tested on: NCI-H226 lung
[22] = tested on: MDA-MB-435
[23] = tested on: 786-0 renal
[24] = tested on: HOP-92 NSCLC
[25] = tested on: OVCAR-4 ovarian
[26] = tested on: SW-620 colon
[27] = tested on: EKVX NSCLC
[28] = tested on: SF-539 CNS
[29] = tested on: RXF 393 renal
[30] = tested on: SF-268 CNS
[31] = tested on: HCT-15 colon
[32] = tested on: HOP-62 NSCLC
[33] = tested on: SK-OV-3 ovarian
[34] = tested on: COLO 205 colon
[35] = tested on: HS 578T breast
[36] = tested on: RPMI-8226 leukemia
[37] = tested on: SK-MEL-2 melanoma
[38] = tested on: SK-MEL-5 melanoma
[39] = tested on: A549 NSCLC
[40] = tested on: SN12C renal
[41] = tested on: DU-145 prostate
[42] = tested on: SR leukemia
[43] = tested on: U251 CNS
[44] = tested on: M14 melanoma
[45] = tested on: T-47D breast
[46] = tested on: OVCAR-3 ovarian
[47] = tested on: MOLT-4 leukemia
[48] = tested on: MCF7 breast
[49] = tested on: SNB-19 CNS
[50] = tested on: NCI-H23 lung
[51] = tested on: HCT-116 colon
[52] = tested on: TK-10 renal
[53] = tested on: IGROV1 ovarian
[54] = tested on: NCI-H522 lung
[55] = tested on: OVCAR-5 ovarian
[56] = tested on: HL-60(TB) leukemia
[57] = tested on: UO-31 renal
[58] = tested on: HCC-2998 colon
[59] = tested on: CCRF-CEM leukemia

Measured: TGI

CCOC(=O)c1cnc(N(C)C)nc1SC(=N)N
not listed: [56] | [57] | [58] | [59]
> 100 µM: all other assays above

COc1cc(OC)cc(OCc2nc3cc(C(F)(F)F)ccc3nc2-c2ccccc2)c1
not listed: [18] | [38]
> 100 µM: all other assays above

Reference: PubChem BioAssay (NCI)
